Where two headings read alike, the source gives them in different places.
Key:
Type in all cases: cell-based
[1] = test system: Aspergillus niger (A. niger—ATCC 16404); experiment: Synergy test, microtiter plate high resolution MIC assay, mold; design: key to SI (calculated synergy index) / SI (synergy index): SI = Qa/QA + Qb/QB (mixture vs. alone end-point concentrations); settings: for MIC: Aspergillus niger
Excerpt: (§1) One measure of synergism is the industrially accepted method described by Kull, F. C.; Eisman, P. C.; Sylwestrowicz, H. D. and Mayer, R. L., in Applied Microbiology 9:538-541 (1961), using the ratio determined by the formula: Qa/QA+Qb/QB=Synergy Index (“SI”) wherein: • QA=concentration of compound A (first component) in ppm, acting alone, which produced an end point (MIC of Compound A). • Qa=concentration of compound A in ppm, in the mixture, which produced an end point. • QB=concentration of compound B (second component) in ppm, acting alone, which produced an end point (MIC of Compound B). • Qb=concentration of compound B in ppm, in the mixture, which produced an end point.
(§2) When the sum of Qa/QA and Qb/QB is greater than one, antagonism is indicated. […] The lower the SI, the greater the synergy shown by that particular mixture. The minimum inhibitory concentration (MIC) of a microbicide is the lowest concentration tested under a specific set of conditions that prevents the growth of added microorganisms.
(§3) Synergy tests were conducted using standard microtiter plate assays with media designed for optimal growth of the test microorganism. Soybean Casein Digest Broth (Tryptic Soy Broth, TSB medium) or minimal salt medium supplemented with 0.2% glucose and 0.1% yeast extract (M9GY medium) was used for testing bacteria; Potato Dextrose Broth (PDB medium) was used for testing yeast and mold. In this method, a wide range of combinations of microbicides was tested by conducting high resolution MIC assays in the presence of various concentrations of MI. High resolution MICs were determined by adding varying amounts of microbicide to one column of a microtitre plate and doing subsequent ten-fold dilutions using an automated liquid handling system to obtain a series of endpoints ranging from 2 ppm to 10,000 ppm active ingredient.
(§4) For MI combinations, the synergy of the combinations of the present invention was determined against two bacteria, Escherichia coli (E. coli—ATCC #8739) or Pseudomonas aeruginosa (P. aeruginosa—ATCC #15442), a yeast, Candida albicans (C. albicans—ATCC 10231), and a mold, Aspergillus niger (A. niger—ATCC 16404). The bacteria were used at a concentration of about 5×10^6 bacteria per mL and the yeast and mold at 5×10^5 fungi per mL. These microorganisms are representative of natural contaminants in many consumer and industrial applications. […] (bacteria).
(§5) For BIT combinations, the synergy of the combinations of the present invention was determined against a bacterium, Pseudomonas aeruginosa (P. aeruginosa—ATCC #15442), a yeast, Candida albicans (C. albicans—ATCC 10231), and a mold, Aspergillus niger (A. niger—ATCC 16404). The bacteria were used at a concentration of about 5×10^6 bacteria per mL and the yeast and mold at 5×10^5 fungi per mL. These microorganisms are representative of natural contaminants in many consumer and industrial applications. […] (yeast and mold) or 30° C. (bacteria).

[2] = test system: Pseudomonas aeruginosa (P. aeruginosa—ATCC #15442); experiment: Synergy test, microtiter plate high resolution MIC assay, bacterium; design: key to SI (calculated synergy index) / SI (synergy index): SI = Qa/QA + Qb/QB (mixture vs. alone end-point concentrations); settings: P. aeruginosa 15442, M9GY; for Qb: alone or mixed with BIT; for Qb (second component at end point, MIC) / MIC: alone where Qa = 0; for MIC: Pseudomonas aeruginosa
Excerpt: as §1, §2, §3, §4, §5

[3] = test system: Candida albicans (C. albicans—ATCC 10231); experiment: Synergy test, microtiter plate high resolution MIC assay, yeast; settings: C. albicans 10231, PDB; for Qb: alone or mixed with BIT
Excerpt: as §1, §2, §3, §4, §5

[4] = test system: Escherichia coli (E. coli—ATCC #8739); experiment: Synergy test, microtiter plate high resolution MIC assay, bacterium; settings: E. coli 8739, M9GY; for Qb: alone or mixed with BIT
Excerpt: as §1, §2
as §3, with “In this method, a wide range of combinations of microbicides was tested by conducting high resolution MIC assays in the presence of various concentrations of MI.” left out
as §4

[5] = benzyl alcohol concentration giving end point (MIC), 48 hours
[6] = synergy index BIT + benzyl alcohol, 48 hours
[7] = caprylyl glycol concentration giving end point (MIC), 24 hours
[8] = synergy index BIT + caprylyl glycol, 24 hours
[9] = diazolidinyl urea concentration giving end point (MIC), 48 hours
[10] = synergy index BIT + diazolidinyl urea, 48 hours
[11] = Table 25, sodium dehydroacetic acid with BIT, 24 hours, alone where Qa = 0

CNC(=O)c1ccccc1SSc1ccccc1C(=O)NC [2,2′-dithiobis(N-methylbenzamide)]
MIC ([1]; ATCC16404, 72 h, 2,2′-dithiobis(N-methylbenzamide) concentration giving end point (MIC), alone or mixed with BIT, A. niger 16404, PDB, 3 days, read-out: Qb): 1000 µg/mL
SI ([1]; synergy index BIT + 2,2′-dithiobis(N-methylbenzamide), A. niger 16404, PDB, 3 days): 1.00
Qb ([2]; 2,2′-dithiobis(N-methylbenzamide) concentration giving end point (MIC), 48 hours): 200 ppm
SI ([2]; synergy index BIT + 2,2′-dithiobis(N-methylbenzamide), 48 hours): 1.00

OCc1ccccc1 [Benzyl alcohol]
MIC ([1]; ATCC16404, 168 h, benzyl alcohol concentration giving end point (MIC), alone or mixed with BIT, A. niger 16404, PDB, 1 week, read-out: Qb): 5000 µg/mL
SI ([1]; synergy index BIT + benzyl alcohol, A. niger 16404, PDB, 1 week): 1.00
Qb [3, 5]: 4000 ppm
SI [3, 6]: 1.00
Qb [2, 5]: 200 ppm
SI [2, 6]: 1.00
Qb ([4]; benzyl alcohol concentration giving end point (MIC), 24 hours): 4000 ppm
SI ([4]; synergy index BIT + benzyl alcohol, 24 hours): 1.00

CCCCCCC(O)CO (stereo not shown) [Caprylyl glycol]
MIC of component acting alone (QA / QB) ([1]; A. niger 16404, PDB, 1 week): 3000 ppm
Qb ([1]; caprylyl glycol concentration giving end point (MIC), alone or mixed with BIT, A. niger 16404, PDB, 1 week): 2000 ppm
SI ([1]; synergy index BIT + caprylyl glycol, A. niger 16404, PDB, 1 week): 1.00
MIC of component acting alone (QA / QB) ([3]; 48 hours): 2000 ppm
Qb [3, 7]: 2000 ppm
SI [3, 8]: 1.00
MIC of component acting alone (QA / QB) ([2]; 48 hours): 3000 ppm
Qb [2, 7]: 3000 ppm
SI [2, 8]: 1.00
MIC of component acting alone (QA / QB) ([4]; 24 hours): 2000 ppm
Qb [4, 7]: 2000 ppm
SI [4, 8]: 1.00

O=C(NCO)N(CO)C1(CO)C(=O)NC(=O)N1CO (stereo not shown) [Diazolidinyl urea]
MIC ([1]; ATCC16404, 72 h, diazolidinyl urea concentration giving end point (MIC), alone or mixed with BIT, A. niger 16404, PDB, 3 days, read-out: Qb): 1000 µg/mL
SI ([1]; synergy index BIT + diazolidinyl urea, A. niger 16404, PDB, 3 days): 1.00
Qb ([3]; diazolidinyl urea concentration giving end point (MIC), 24 hours): 2000 ppm
SI ([3]; synergy index BIT + diazolidinyl urea, 24 hours): 1.00
Qb [2, 9]: 80 ppm
SI [2, 10]: 1.00
Qb [4, 9]: 100 ppm
SI [4, 10]: 1.00

O=C(O)CN(CCN(CC(=O)O)CC(=O)O)CC(=O)O [EDTA, ethylenediamine tetraacetic acid]
MIC ([1]; ATCC16404, 96 h, read-out: Qb): 2000 µg/mL
SI ([1]; synergy index BIT + EDTA, A. niger 16404, PDB, 4 days): 1.00

CC(=O)c1c([O-])cc(C)oc1=O.[Na+] [Sodium dehydroacetic acid]
MIC of component acting alone (QA / QB) ([1]; A. niger 16404, PDB, 4 days): 80 ppm
SI (synergy index) ([1]; Table 25, A. niger 16404, PDB, 1 week): 1.00
Qb (second component at end point, MIC) ([1]; Table 25, sodium dehydroacetic acid with BIT, A. niger 16404, PDB, 1 week, alone where Qa = 0): 200 ppm
MIC of component acting alone (QA / QB) ([3]; 24 hours): 40 ppm
SI (synergy index) ([3]; Table 25, 24 hours): 1.00
Qb (second component at end point, MIC) [3, 11]: 30 ppm
MIC of component acting alone (QA / QB) ([2]; 48 hours): 10000 ppm
SI (synergy index) ([2]; Table 25, 24 hours): 1.00
Qb (second component at end point, MIC) ([2]; Table 25, sodium dehydroacetic acid with BIT, 24 hours): 10000 ppm
MIC of component acting alone (QA / QB) ([4]; 24 hours): 10000 ppm
SI (synergy index) ([4]; Table 25, 24 hours): 1.00
Qb (second component at end point, MIC) [4, 11]: 10000 ppm

O=C([O-])CNCO.[Na+] [Sodium hydroxymethylglycinate]
MIC ([1]; ATCC16404, 72 h, read-out: Qb (second component at end point, MIC)): 600 µg/mL
SI (synergy index) ([1]; Table 27, A. niger 16404, PDB, 3 days): 1.00
MIC ([2]; ATCC15442, 24 h, read-out: Qb (second component at end point, MIC), Table 27, Sodium hydroxymethylglycinate with BIT, 24 hours): 2000 µg/mL
SI (synergy index) ([2]; Table 27, 24 hours): 1.00

CCOC(=O)c1ccc(O)cc1 [ethylparaben]
MIC ([1]; ATCC16404, 72 h, ethylparaben concentration giving end point (MIC), alone or mixed with BIT, A. niger 16404, PDB, 3 days, read-out: Qb): 2000 µg/mL
SI ([1]; synergy index BIT + ethylparaben, A. niger 16404, PDB, 3 days): 1.00
Qb ([2]; ethylparaben concentration giving end point (MIC), 48 hours): 3000 ppm
SI ([2]; synergy index BIT + ethylparaben, 48 hours): 1.00

COC(=O)c1ccc(O)cc1 [methylparaben]
MIC ([1]; ATCC16404, 96 h, read-out: Qb): 800 µg/mL
SI ([1]; synergy index BIT + methylparaben, A. niger 16404, PDB, 4 days): 1.00
Qb ([2]; methylparaben concentration giving end point (MIC), 48 hours): 3000 ppm
SI ([2]; synergy index BIT + methylparaben, 48 hours): 1.00

CCCOC(=O)c1ccc(O)cc1 [propylparaben]
MIC ([1]; ATCC16404, 72 h, Table 23, propylparaben with BIT, A. niger 16404, PDB, 3 days, alone where Qa = 0, read-out: Qb (second component at end point, MIC)): 1000 µg/mL
SI (synergy index) ([1]; Table 23, A. niger 16404, PDB, 3 days): 1.00
MIC ([2]; ATCC15442, Table 23, propylparaben with BIT, 24 hours, read-out: Qb (second component at end point, MIC)): 10000 µg/mL
SI (synergy index) ([2]; Table 23, 24 hours): 1.00

Benzalkonium chloride
SI (calculated synergy index) ([1]; Table 8, A. niger 16404, PDB, 1 week): 1.00
Qb: end-point activity (MIC) of second component in the mixture (alone, QB, where Qa = 0) ([1]; Table 8, A. niger 16404, PDB, 1 week, B = Benzalkonium chloride): 200 ppm
SI (calculated synergy index) ([2]; Table 8, 48 hours): 1.00
Qb: end-point activity (MIC) of second component in the mixture (alone, QB, where Qa = 0) ([2]; Table 8, 48 hours, B = Benzalkonium chloride): 40 ppm

zinc pyrithione
SI (synergy index) ([1]; Table 28, A. niger 16404, PDB, 1 week): 1.00
Qb (second component at end point, MIC) ([1]; Table 28, zinc pyrithione with BIT, A. niger 16404, PDB, 1 week, alone where Qa = 0): 8 ppm
SI (synergy index) ([2]; Table 28, 48 hours): 1.00
Qb (second component at end point, MIC) ([2]; Table 28, zinc pyrithione with BIT, 48 hours): 80 ppm

— patent US7468384B2, “Microbicidal composition” (Rohm and Haas Company, priority 2004, dated 2008)
